From patent publication US4652547A (Eli Lilly and Company, priority 1984, dated 1987)
Like-named read-outs stand apart in the source and are kept apart here.

Columns and labels:
[1] = tested on: hepatic glucose production; assay: Subcutaneous administration to Type II subjects: hepatic glucose production; type: in vivo, human; details: 0.2 U/kg s.c.
glucose disposal = assay: Euglycemic glucose-clamp studies: glucose disposal; type: in vivo, human
Protocol: Ten healthy control subjects (five female and five male) ranging in age from 25-40 years (mean age=29±3 years) with mean relative body weights of 0.96+0.02 were used.
With this technique, an antecubital vein is cannulated in an antegrade manner to administer the infusates. A dorsal hand vein is cannulated in a retrograde fashion and kept in a warming device (70° C.) to facilitate venous sampling and provide arterialized venous blood. After insertion of the catheters, [3--3H]-glucose is infused for at least 30 minutes before initiating the hormone infusion. At the onset of hormone infusion, a priming dose of either insulin or proinsulin is administered during the initial 10 minutes in a logarithmically decreasing manner to acutely raise the serum hormone level. The amount of insulin or proinsulin given during this initial 10 minute period is roughly twice that given during each subsequent 10 minute interval by a continuous hormone infusion. […] The overall glucose disposal rate is assessed isotopically for each 20 minute interval of the study.
On one day, each subject received a 5.0 μg/M2/min (120 mU/M2/min) insulin infusion over a 6 hour period. […] Each proinsulin infusion was carried out for 300 minutes, with the quantitation of its biological effects based on measurements made during the 5th hour of each study. […]

plasma glucose = assay: Response of fasting Type II diabetic patients: plasma glucose and hypoglycemia; details: 0.2 U/kg s.c.
[2] = tested on: hepatic glucose output (HGO); assay: Kinetics of activation and deactivation: hepatic glucose output (HGO); type: in vivo, human
Source text: (§1) At this point, the hormone infusion was abruptly stopped, and the glucose concentration was maintained constant until the biologic effects of the infused hormone were no longer detectable.

HGO = tested on: HGO
Source text: For example, in non-insulin dependent diabetes mellitus (NIDDM), one of the major metabolic abnormalities that maintains the resultant hyperglycemic state is accelerated hepatic glucose production.

[3] = Source text: as §1
[4] = 0.2 U/kg s.c., five Type II subjects
[5] = tested on: insulin-degrading proteases; details: proteases at subcutaneous injection site of certain diabetics
[6] = Hormone activity used for dosing; details: basis for administered amounts
[7] = tested on: peripheral glucose uptake; assay: Kinetics of activation and deactivation: peripheral glucose uptake; type: in vivo, human
Source text: Marked differences between the two hormones were noted when biologic activity was studied.
as §1

[8] = remark: listed apart in the source
Protocol: (§2) J. Physiol. 237:E214-E223 (1979). With this technique, an antecubital vein is cannulated in an antegrade manner to administer the infusates. A dorsal hand vein is cannulated in a retrograde fashion and kept in a warming device (70° C.) to facilitate venous sampling and provide arterialized venous blood. After insertion of the catheters, [3--3H]-glucose is infused for at least 30 minutes before initiating the hormone infusion. At the onset of hormone infusion, a priming dose of either insulin or proinsulin is administered during the initial 10 minutes in a logarithmically decreasing manner to acutely raise the serum hormone level. The amount of insulin or proinsulin given during this initial 10 minute period is roughly twice that given during each subsequent 10 minute interval by a continuous hormone infusion. The serum glucose is maintained between 80 and 90 mg/dl throughout the study period with a coefficient of variation of less than 5% by means of a variable rate of infusion of 20% dextrose. The overall glucose disposal rate is assessed isotopically for each 20 minute interval of the study.
Each subject underwent a total of 8 euglycemic glucose clamp studies, each performed on a separate day. Insulin infusion rates of 15, 40, 120, and 240 mU/M2/min were utilized to construct a dose response curve for insulin action. With this approach an attempt was made to achieve steady state insulin concentrations of 40 to 800 μU/ml (Table 1). Each subject was also studied with four different proinsulin infusions. […] Hepatic glucose output was quantitated in the basal state and during each clamp study using a primed continuous infusion of [3--3H]glucose. […] The dose response relationship for insulin and proinsulinmediated suppression of hepatic glucose output was determined by calculating the percent suppression of basal hepatic glucose output at each steady state hormone concentration obtained during the euglycemic clamp studies.

fat cells = details: e.g. fat cells; cited from earlier work
hepatic glucose output = assay: Euglycemic glucose-clamp studies: suppression of hepatic glucose output; type: in vivo, human
Protocol: as §2, with “The amount of insulin or proinsulin given during this initial 10 minute period is roughly twice that given during each subsequent 10 minute interval by a continuous hormone infusion. The serum glucose is maintained between 80 and 90 mg/dl throughout the study period with a coefficient of variation of less than 5% by means of a variable rate of infusion of 20% dextrose.” left out
Each subject underwent a total of 8 euglycemic glucose clamp studies, each performed on a separate day. […] Hepatic glucose output was quantitated in the basal state and during each clamp study using a primed continuous infusion of [3--3H]glucose. […] The dose response relationship for insulin and proinsulinmediated suppression of hepatic glucose output was determined by calculating the percent suppression of basal hepatic glucose output at each steady state hormone concentration obtained during the euglycemic clamp studies.

[9] = Study A: insulin 15 mU/M^2/min, proinsulin 2.75 μg/M^2/min

## human proinsulin
[1]
  Effect on hepatic glucose production: suppressed into the normal range
  Time of maximum suppression of hepatic glucose production: 264 ± 31 min
[1]; basal 3.83±0.6
  Minimum hepatic glucose production: 1.21 ± 0.2 mg/kg/min
Glucose disposal; 5 subjects, insulin 5.0 μg/M2/min over 6 hours, proinsulin 22.5 μg/M2/min over 8 hours
  Time to reach steady state rates of glucose disposal: ≤ 5 h
Glucose disposal; [9]
  Glucose Disposal Rate (Mean ± SE): 122 ± 11 mg/M^2/min
Plasma glucose; five fasting Type II subjects
  Blood glucose level to which each subject was lowered: 80 to 110 mg/dL
Plasma glucose; Mean of subjects (mean total dose 18.7 I.U.), 0 min after injection
  Plasma Glucose: 245 mg/dL
Plasma glucose; Mean of subjects (mean total dose 18.7 I.U.), 40 min after injection
  Plasma Glucose: 235 mg/dL
Plasma glucose; Mean of subjects (mean total dose 18.7 I.U.), 80 min after injection
  Plasma Glucose: 221 mg/dL
Plasma glucose; Mean of subjects (mean total dose 18.7 I.U.), 120 min after injection
  Plasma Glucose: 205 mg/dL
Plasma glucose; Mean of subjects (mean total dose 18.7 I.U.), 160 min after injection
  Plasma Glucose: 188 mg/dL
Plasma glucose; Mean of subjects (mean total dose 18.7 I.U.), 200 min after injection
  Plasma Glucose: 167 mg/dL
Plasma glucose; Mean of subjects (mean total dose 18.7 I.U.), 280 min after injection
  Plasma Glucose: 129 mg/dL
Plasma glucose; Mean of subjects (mean total dose 18.7 I.U.), 300 min after injection
  Plasma Glucose: 113 mg/dL
Plasma glucose; Mean of subjects (mean total dose 18.7 I.U.), 360 min after injection
  Plasma Glucose: 102 mg/dL
Plasma glucose; Mean of subjects (mean total dose 18.7 I.U.), 400 min after injection
  Plasma Glucose: 95 mg/dL
Plasma glucose; Mean of subjects (mean total dose 18.7 I.U.), 440 min after injection
  Plasma Glucose: 92 mg/dL
Plasma glucose; Mean of subjects (mean total dose 18.7 I.U.), 480 min after injection
  Plasma Glucose: 96 mg/dL
Plasma glucose; subject (total dose 15.0 I.U.), 0 min after injection
  Plasma Glucose: 332 mg/dL
Plasma glucose; subject (total dose 15.0 I.U.), 40 min after injection
  Plasma Glucose: 328 mg/dL
Plasma glucose; subject (total dose 15.0 I.U.), 80 min after injection
  Plasma Glucose: 308 mg/dL
Plasma glucose; subject (total dose 15.0 I.U.), 120 min after injection
  Plasma Glucose: 288 mg/dL
Plasma glucose; subject (total dose 15.0 I.U.), 160 min after injection
  Plasma Glucose: 272 mg/dL
Plasma glucose; subject (total dose 15.0 I.U.), 200 min after injection
  Plasma Glucose: 247 mg/dL
Plasma glucose; subject (total dose 15.0 I.U.), 240 min after injection
  Plasma Glucose: 210 mg/dL
Plasma glucose; subject (total dose 15.0 I.U.), 280 min after injection
  Plasma Glucose: 174 mg/dL
Plasma glucose; subject (total dose 15.0 I.U.), 360 min after injection
  Plasma Glucose: 94 mg/dL
Plasma glucose; subject four (total dose 27.2 I.U.), 0 min after injection
  Plasma Glucose: 159 mg/dL
Plasma glucose; subject four (total dose 27.2 I.U.), 40 min after injection
  Plasma Glucose: 144 mg/dL
Plasma glucose; subject four (total dose 27.2 I.U.), 120 min after injection
  Plasma Glucose: 128 mg/dL
Plasma glucose; subject four (total dose 27.2 I.U.), 200 min after injection
  Plasma Glucose: 110 mg/dL
Plasma glucose; subject four (total dose 27.2 I.U.), 240 min after injection
  Plasma Glucose: 101 mg/dL
Plasma glucose; subject four (total dose 27.2 I.U.), 280 min after injection
  Plasma Glucose: 98 mg/dL
Plasma glucose; subject four (total dose 27.2 I.U.), 300 min after injection
  Plasma Glucose: 88 mg/dL
Plasma glucose; subject four (total dose 27.2 I.U.), 360 min after injection
  Plasma Glucose: 84 mg/dL
Plasma glucose; subject four (total dose 27.2 I.U.), 400 min after injection
  Plasma Glucose: 85 mg/dL
Plasma glucose; subject four (total dose 27.2 I.U.), 440 min after injection
  Plasma Glucose: 86 mg/dL
Plasma glucose; subject four (total dose 27.2 I.U.), 480 min after injection
  Plasma Glucose: 88 mg/dL
Plasma glucose; subject one (total dose 14.8 I.U.), 0 min after injection
  Plasma Glucose: 213 mg/dL
Plasma glucose; subject one (total dose 14.8 I.U.), 40 min after injection
  Plasma Glucose: 203 mg/dL
Plasma glucose; subject one (total dose 14.8 I.U.), 80 min after injection
  Plasma Glucose: 187 mg/dL
Plasma glucose; subject one (total dose 14.8 I.U.), 160 min after injection
  Plasma Glucose: 140 mg/dL
Plasma glucose; subject one (total dose 14.8 I.U.), 240 min after injection
  Plasma Glucose: 81 mg/dL
Plasma glucose; subject one (total dose 14.8 I.U.), 280 min after injection
  Plasma Glucose: 77 mg/dL
Plasma glucose; subject one (total dose 14.8 I.U.), 300 min after injection
  Plasma Glucose: 80 mg/dL
Plasma glucose; subject one (total dose 14.8 I.U.), 320 min after injection
  Plasma Glucose: 80 mg/dL
Plasma glucose; subject three (total dose 16.3 I.U.), 0 min after injection
  Plasma Glucose: 290 mg/dL
Plasma glucose; subject three (total dose 16.3 I.U.), 40 min after injection
  Plasma Glucose: 282 mg/dL
Plasma glucose; subject three (total dose 16.3 I.U.), 80 min after injection
  Plasma Glucose: 272 mg/dL
Plasma glucose; subject three (total dose 16.3 I.U.), 120 min after injection
  Plasma Glucose: 250 mg/dL
Plasma glucose; subject three (total dose 16.3 I.U.), 160 min after injection
  Plasma Glucose: 230 mg/dL
Plasma glucose; subject three (total dose 16.3 I.U.), 200 min after injection
  Plasma Glucose: 200 mg/dL
Plasma glucose; subject three (total dose 16.3 I.U.), 240 min after injection
  Plasma Glucose: 183 mg/dL
Plasma glucose; subject three (total dose 16.3 I.U.), 280 min after injection
  Plasma Glucose: 152 mg/dL
Plasma glucose; subject three (total dose 16.3 I.U.), 300 min after injection
  Plasma Glucose: 127 mg/dL
Plasma glucose; subject three (total dose 16.3 I.U.), 360 min after injection
  Plasma Glucose: 101 mg/dL
Plasma glucose; subject three (total dose 16.3 I.U.), 400 min after injection
  Plasma Glucose: 82 mg/dL
Plasma glucose; subject three (total dose 16.3 I.U.), 440 min after injection
  Plasma Glucose: 77 mg/dL
Plasma glucose; subject two (total dose 20.0 I.U.), 0 min after injection
  Plasma Glucose: 231 mg/dL
Plasma glucose; subject two (total dose 20.0 I.U.), 40 min after injection
  Plasma Glucose: 217 mg/dL
Plasma glucose; subject two (total dose 20.0 I.U.), 80 min after injection
  Plasma Glucose: 201 mg/dL
Plasma glucose; subject two (total dose 20.0 I.U.), 120 min after injection
  Plasma Glucose: 191 mg/dL
Plasma glucose; subject two (total dose 20.0 I.U.), 160 min after injection
  Plasma Glucose: 182 mg/dL
Plasma glucose; subject two (total dose 20.0 I.U.), 240 min after injection
  Plasma Glucose: 164 mg/dL
Plasma glucose; subject two (total dose 20.0 I.U.), 280 min after injection
  Plasma Glucose: 143 mg/dL
Plasma glucose; subject two (total dose 20.0 I.U.), 300 min after injection
  Plasma Glucose: 134 mg/dL
Plasma glucose; subject two (total dose 20.0 I.U.), 360 min after injection
  Plasma Glucose: 128 mg/dL
Plasma glucose; subject two (total dose 20.0 I.U.), 400 min after injection
  Plasma Glucose: 117 mg/dL
Plasma glucose; subject two (total dose 20.0 I.U.), 440 min after injection
  Plasma Glucose: 112 mg/dL
Plasma glucose; subject two (total dose 20.0 I.U.), 480 min after injection
  Plasma Glucose: 104 mg/dL
Plasma glucose; subject two (total dose 20.0 I.U.), 500 min after injection
  Plasma Glucose: 100 mg/dL
[2]; after stopping 5 hour infusion
  t 1/2 of deactivation of effect to inhibit HGO: 3.83 ± 0.317 h
[2]; after stopping infusion
  Time for HGO to return to baseline values, by extrapolation of the curve: > 6 h
  Time until decline in effect to suppress HGO could be detected: 120 min
HGO; NIDDM subjects, circulating concentration approximately 1.5 2 pmol/ml
  Expected suppression of HGO: approximately 50%
HGO; sustained level of 1.5-2 pmol/ml for about 3 hours, CSII or single s.c. injection
  Expected duration of adequate glycemic control: 8 to 10 h
[3]; after stopping 5 hour infusion (human insulin 0.55, human proinsulin 2.75 μg/M^2/min)
  t 1/2 of clearance from the circulation: 0.333 h
[3]; after stopping infusion
  Time by which hormone concentrations are below biologically effective values: ≤ 90 minutes
[3]; primed continuous infusion
  Initial volume of distribution compared to human insulin: much greater
  Time to steady state hormone concentration: 90 to 120 min
[3]; primed continuous infusion, all infusion rates
  Time of initial peak of hormone concentration: no initial peak of hormone concentration was observed
[4]
  Mean peak hormone blood level: 6.8 pmol/mL
  Time of mean peak hormone blood level: 230 ± 33 min
[5]
  Degradation by insulin-degrading proteases: not degraded
[6]
  Hormone activity: 4 IU/mg
[7]; after stopping 5 hour infusion
  t 1/2 of deactivation of effects on glucose disposal: 1.45 ± 0.233 h
[7]; after stopping infusion
  Decay of effect to stimulate glucose disposal, times more slowly than human insulin: 2.2 times
[7]; following cessation of infusion
  Time for glucose disposal rates to return to basal: 160 min
[7]; hormone infusion
  Time for effect to stimulate glucose disposal to reach steady state: > 5 h
[8]; infusion A: insulin 0.63 μg/M^2/min, proinsulin 2.75 μg/M^2/min
  Steady State Hormone Levels (Mean ± SEM): 2.55 ± 0.16 pmol/mL
[8]; infusion B: insulin […]^2/min, proinsulin 7.5 μg/M^2/min
  Steady State Hormone Levels (Mean ± SEM): 6.24 ± 0.49 pmol/mL
[8]; infusion C: insulin 5.0 μg/M^2/min, proinsulin 22.5 μg/M^2/min
  Steady State Hormone Levels (Mean ± SEM): 21.2 ± 1.4 pmol/mL
[8]; infusion D: insulin 10.0 μg/M^2/min, proinsulin 45.0 μg/M^2/min
  Steady State Hormone Levels (Mean ± SEM): 40.0 ± 1.9 pmol/mL
Fat cells
  Internalization into target tissues: internalized into target tissues
Hepatic glucose output; [9]
  Suppression of Hepatic Glucose Output (Mean ± SE): 80 ± 6%
Hepatic glucose output; steady state serum concentration, euglycemic clamp
  Hormone concentration required to achieve 90% suppression of hepatic glucose output: 3.35 pmol/mL
